Test system: oral mucositis
Assay: Treatment of oral mucositis in cancer subjects (case examples 2-6)
Type: in vivo, human
Conditions: grade IV mucositis, listed agents used with cryotherapy
Method: The efficacy and safety of the compositions comprising the disclosed acidic extract of myrrh resin were clinically assessed for prevention, treatment and/or improvement of oral and gastrointestinal mucositis.
In place of prophylactic incubation, the subject began using the composition comprising the disclosed acidic extract of myrrh resin in the form of gel four times a day.
(§1) The subject began using the composition comprising the disclosed acidic extract of myrrh resin in the form of gel four times a day.
G: oral examination performed on the second day of treatment. H: oral examination performed on the third day of treatment. I: oral examination performed on the fourth day of treatment.
as §1
D, E and F: oral examination performed on the first day of treatment. G, H, I and J: oral examination performed on the third day of treatment. K, L and M: oral examination performed on the fifth day of treatment.
B: oral examination performed on the first day of treatment. C: oral examination performed on the second day of treatment. D: oral examination performed on the third day of treatment. E: oral examination performed on the fourth day of treatment.

[1] = Example 2: Hodgkin's Lymphoma, high dose chemotherapy
[2] = Example 4: pancreatic adenocarcinoma, chemotherapy
[3] = Example 5: Larynx CA, induction chemotherapy
[4] = Example 6: larynx malignant neoplasma, radiation therapy

Compound: N=C(NCCCCCCNC(=N)NC(=N)Nc1ccc(Cl)cc1)NC(=N)Nc1ccc(Cl)cc1.O=C(O)[C@H](O)[C@@H](O)[C@H](O)[C@H](O)CO.O=C(O)[C@H](O)[C@@H](O)[C@H](O)[C@H](O)CO [chlorhexidine gluconate]
- effect of earlier treatment of the oral lesions [1]: not effective
- effect of earlier treatment of the oral lesions [2]: mild decrease in mucositis
- effect of earlier treatment of the oral lesions [3]: mild decrease in mucositis
- effect of earlier treatment of the oral lesions [4]: not effective

Compound: O=C([O-])O.[Na+] [sodium bicarbonate]
- effect of earlier treatment of the oral lesions [1]: not effective
- effect of earlier treatment of the oral lesions [2]: mild decrease in mucositis
- effect of earlier treatment of the oral lesions [3]: mild decrease in mucositis
- effect of earlier treatment of the oral lesions [4]: not effective

Source: US11331360B2, “Commiphora molmol (myrrh) resin extracts and uses thereof for wound healing and treatment and prevention of mucositis and other diseases” (Umayana LLC, priority 2018, dated 2022)
